The values that follow are results of earlier work, collected in patent US8653135B1, “Alternating sympathomimetic therapy for the treatment of respiratory aliments” (Sovereign Pharmaceuticals, LLC, priority 2007, dated 2014).

For this data set the following is noted: when given in adequate dosages.

Consider `CNC[C@H](O)c1cccc(O)c1` [Phenylephrine, phenylephrine], for which the “effect on heart rate” value was “slows the heart rate”.
